Test results from ChEMBL document CHEMBL1201862, “PubChem BioAssay data set” (2004).
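How tested: cells in 96-well plates exposed to compound for 48 hours at five concentrations. The concentration for 50% growth inhibition is given as GI50.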 Activity calls are given as the source filed them. Cut-off read from the data, not from the text of the source: active = GI50 up to about 1.1 µM and inactive = higher.

Legend:
Assay in all cases: inhibition of tumour cell growth, NCI panel, 48 h
SF-539 = test system: SF-539
NCI-H522 = test system: NCI-H522
Malme-3M = test system: Malme-3M
SNB-75 = test system: SNB-75
786-0 = test system: 786-0
RXF 393 = test system: RXF 393
SK-MEL-5 = test system: SK-MEL-5
XF498 = test system: XF498
ACHN = test system: ACHN
SK-MEL-2 = test system: SK-MEL-2
CCRF-CEM = test system: CCRF-CEM
LXFL 529 = test system: LXFL 529
KM-20L2 = test system: KM-20L2
NCI-H226 = test system: NCI-H226
COLO 205 = test system: COLO 205
SK-OV-3 = test system: SK-OV-3
NCI-H460 = test system: NCI-H460
M14 = test system: M14
HCT-15 = test system: HCT-15
RXF 631 = test system: RXF 631
SK-MEL-28 = test system: SK-MEL-28
MOLT-4 = test system: MOLT-4
TK-10 = test system: TK-10
OVCAR-3 = test system: OVCAR-3
RPMI-8226 = test system: RPMI-8226
SNB-19 = test system: SNB-19
K562 = test system: K562
UACC-62 = test system: UACC-62
A498 = test system: A498
NCI-H23 = test system: NCI-H23
SW-620 = test system: SW-620
DMS-273 = test system: DMS-273
SN12C = test system: SN12C
HCT-116 = test system: HCT-116
SF-268 = test system: SF-268
OVCAR-8 = test system: OVCAR-8
SF-295 = test system: SF-295
SNB-78 = test system: SNB-78
UO-31 = test system: UO-31
OVCAR-5 = test system: OVCAR-5
U-251 = test system: U-251
EKVX = test system: EKVX
OVCAR-4 = test system: OVCAR-4
HT-29 = test system: HT-29
HOP-92 = test system: HOP-92
UACC-257 = test system: UACC-257
DMS-114 = test system: DMS-114
A549 = test system: A549
HCC 2998 = test system: HCC 2998
KM12 = test system: KM12
LOX IMVI = test system: LOX IMVI
CAKI-1 = test system: CAKI-1
DLD-1 = test system: DLD-1
HOP-18 = test system: HOP-18
HOP-62 = test system: HOP-62
M19-MEL = test system: M19-MEL
IGROV-1 = test system: IGROV-1
SR = test system: SR

CCCCCCCCCCCC(=O)OCC1OC(n2cc(F)c(=O)[nH]c2=O)C(NC(=O)OCc2ccccc2)C(OC(=O)CCCCCCCCCCC)C1O (stereo unspecified)
GI50 (SF-539): > 100 µM (inactive)
GI50 (NCI-H522): > 100 µM (inactive)
GI50 (Malme-3M): > 100 µM (inactive)
GI50 (SNB-75): > 100 µM (inactive)
GI50 (786-0): > 100 µM (inactive)
GI50 (RXF 393): > 100 µM (inactive)
GI50 (SK-MEL-5): > 100 µM (inactive)
GI50 (XF498): > 100 µM (inactive)
GI50 (ACHN): > 100 µM (inactive)
GI50 (SK-MEL-2): > 100 µM (inactive)
GI50 (CCRF-CEM): > 100 µM (inactive)
GI50 (LXFL 529): > 100 µM (inactive)
GI50 (KM-20L2): > 100 µM (inactive)
GI50 (NCI-H226): > 100 µM (inactive)
GI50 (COLO 205): > 100 µM (inactive)
GI50 (SK-OV-3): > 100 µM (inactive)
GI50 (NCI-H460): > 100 µM (inactive)
GI50 (M14): > 100 µM (inactive)
GI50 (HCT-15): > 100 µM
GI50 (RXF 631): > 100 µM (inactive)
GI50 (SK-MEL-28): > 100 µM (inactive)
GI50 (MOLT-4): > 100 µM (inactive)
GI50 (TK-10): > 100 µM (inactive)
GI50 (OVCAR-3): > 100 µM (inactive)
GI50 (RPMI-8226): > 100 µM (inactive)
GI50 (SNB-19): > 100 µM (inactive)
GI50 (K562): > 100 µM (inactive)
GI50 (UACC-62): > 100 µM (inactive)
GI50 (A498): > 100 µM (inactive)
GI50 (NCI-H23): > 100 µM (inactive)
GI50 (SW-620): > 100 µM (inactive)
GI50 (DMS-273): > 100 µM (inactive)
GI50 (SN12C): > 100 µM (inactive)
GI50 (HCT-116): > 100 µM (inactive)
GI50 (SF-268): > 100 µM (inactive)
GI50 (OVCAR-8): > 100 µM (inactive)
GI50 (SF-295): > 100 µM (inactive)
GI50 (SNB-78): > 100 µM (inactive)
GI50 (UO-31): > 100 µM (inactive)
GI50 (OVCAR-5): > 100 µM (inactive)
GI50 (U-251): > 100 µM (inactive)
GI50 (EKVX): > 100 µM (inactive)
GI50 (OVCAR-4): > 100 µM (inactive)
GI50 (HT-29): > 100 µM (inactive)
GI50 (HOP-92): > 100 µM (inactive)
GI50 (UACC-257): > 100 µM (inactive)
GI50 (DMS-114): > 100 µM (inactive)
GI50 (A549): > 100 µM (inactive)
GI50 (HCC 2998): > 100 µM (inactive)
GI50 (KM12): > 100 µM (inactive)
GI50 (LOX IMVI): > 100 µM (inactive)
GI50 (CAKI-1): > 100 µM (inactive)
GI50 (DLD-1): > 100 µM (inactive)
GI50 (HOP-18): > 100 µM (inactive)
GI50 (HOP-62): > 100 µM (inactive)
GI50 (M19-MEL): > 100 µM (inactive)
GI50 (IGROV-1): > 100 µM (inactive)
GI50 (SR): > 100 µM (inactive)

CN(C)c1ccc(/C=C2\CNC/C(=C\c3ccc(N(C)C)cc3)C2=O)cc1
GI50 (SF-539): 59.2 µM (inactive)
GI50 (Malme-3M): > 100 µM (inactive)
GI50 (SNB-75): 11.1 µM (inactive)
GI50 (786-0): 16.8 µM (inactive)
GI50 (RXF 393): 24 µM (inactive)
GI50 (SK-MEL-5): 65.5 µM (inactive)
GI50 (XF498): 16.4 µM (inactive)
GI50 (ACHN): 24.4 µM (inactive)
GI50 (CCRF-CEM): 25.8 µM (inactive)
GI50 (LXFL 529): 37.4 µM (inactive)
GI50 (KM-20L2): 30.1 µM (inactive)
GI50 (NCI-H226): 32.7 µM (inactive)
GI50 (COLO 205): 45.1 µM (inactive)
GI50 (SK-OV-3): > 100 µM (inactive)
GI50 (NCI-H460): 15.5 µM (inactive)
GI50 (M14): 86.7 µM (inactive)
GI50 (HCT-15): 4.46 µM
GI50 (RXF 631): 21.7 µM (inactive)
GI50 (SK-MEL-28): 22.8 µM (inactive)
GI50 (MOLT-4): 24.2 µM (inactive)
GI50 (TK-10): 33.3 µM (inactive)
GI50 (OVCAR-3): 38.8 µM (inactive)
GI50 (RPMI-8226): 54.6 µM (inactive)
GI50 (K562): 24.2 µM (inactive)
GI50 (UACC-62): 34.5 µM (inactive)
GI50 (A498): 17.6 µM (inactive)
GI50 (NCI-H23): > 100 µM (inactive)
GI50 (DMS-273): 12.7 µM (inactive)
GI50 (SN12C): 26.5 µM (inactive)
GI50 (HCT-116): 16 µM (inactive)
GI50 (SF-268): > 10 µM (inactive)
GI50 (OVCAR-8): 24.2 µM (inactive)
GI50 (SF-295): 76.4 µM (inactive)
GI50 (SNB-78): > 100 µM (inactive)
GI50 (UO-31): 36.2 µM (inactive)
GI50 (OVCAR-5): > 100 µM (inactive)
GI50 (U-251): 14.4 µM (inactive)
GI50 (EKVX): > 100 µM (inactive)
GI50 (OVCAR-4): 13.3 µM (inactive)
GI50 (HT-29): 10.9 µM (inactive)
GI50 (HOP-92): 15.6 µM (inactive)
GI50 (UACC-257): 22.5 µM (inactive)
GI50 (DMS-114): 18.8 µM (inactive)
GI50 (A549): 27.4 µM (inactive)
GI50 (HCC 2998): 29.3 µM (inactive)
GI50 (KM12): > 10 µM (inactive)
GI50 (LOX IMVI): 18.8 µM (inactive)
GI50 (DLD-1): 18.9 µM (inactive)
GI50 (HOP-18): 18.9 µM (inactive)
GI50 (HOP-62): > 100 µM (inactive)
GI50 (M19-MEL): 18.4 µM (inactive)
GI50 (IGROV-1): 22 µM (inactive)
GI50 (SR): 8.81 µM (inactive)
